From patent publication US20210198613A1, “MICROELECTRODE ARRAY AND USES THEREOF” (AXOSIM, INC., priority 2018, published 2021)
Read-outs that look alike come from different tables or passages of the source.

Tests used:
[1] = test system: embryonic dorsal root ganglion (DRG) explants; test: Nerve-On-A-Chip compound action potential (CAP) electrophysiology; assay type: cell-based, rat; conditions: 40 μM, 48-hr application
[2] = test system: embryonic dorsal root ganglion (DRG) explants; conditions: 40 μM, 48-hr application
[3] = test system: neuronal cell death in vitro; conditions: cited from earlier work
[4] = test system: embryonic dorsal root ganglion (DRG) explants; conditions: cited from earlier work

With `C=C[C@@]1(C)CC(=O)[C@]2(O)[C@@]3(C)[C@@H](O)CCC(C)(C)[C@@H]3[C@H](O)[C@H](OC(C)=O)[C@@]2(C)O1` [forskolin] the “reduction in CAP amplitude” value [1] was about 50%, the “reduction in conduction velocity” value [1] was about 50% and the dysmyelination by histology [2] was “strong evidence of dysmyelination”. The “increase in G-ratio (thinning of myelin sheath)” value ([2]; histology, data not shown) was 50% and the “reduction in % myelinated axons” value ([2]; histology, data not shown) was 70%.

In the case of `CCCCCC` [n-hexane], the “In Vitro Neurotoxic dose” value [3] is given as 765 mM.

For `NC1=N[C@H](O)[C@H]2[C@H]3O[C@]4(O)O[C@@H]([C@@H](O)[C@@]2(N1)[C@@H]4O)[C@]3(O)CO` [tetrodotoxin], the “effect on CAP population responses” value [4] is listed as “reversibly abolished”.

For `[CH3][Hg][Cl]` [Methylmercury], the “In Vitro Neurotoxic dose” value ([3]; literature value, used as acute 48-hr dose of the planned pilot study) is listed as 10 mM.
